As a reminder, the IC50 is the point on the concentration scale where inhibition reaches its midpoint. For orientation: Ki means the dissociation constant of the complex between target and ligand, obtained from inhibition or displacement. A high value points to lower affinity.

Like-named read-outs stand apart in the source and are kept apart here.

The text below walks through data of patent publication US5744621A, “Irreversible HIV protease inhibitors, intermediates, compositions and processes for the preparation thereof” (Lucky Limited., priority 1992, dated 1998).

The target in one data set is HIV-1. Description: Anti-viral activity: syncytium formation (Sup T1) or reverse transcriptase assay (H9). The class given is cell-based.
The next data set has as its system H9 cell or Sup T1 cell. Description: Cytotoxicity in H9 or Sup T1 cells (trypan blue dye exclusion). Format: cell-based. As to conditions: human, h9 or sup t1 cells.
The target in the next data set is T1, HIV-1 protease (Human immunodeficiency virus type 1 group M subtype B, UniProt P04585).
T1 construct: 2.6 nM of HIV-1 protease
Description: Assay for inhibitory effect on HIV protease (residual enzyme activity, HPLC of substrate cleavage). The class given is biochemical. As to conditions: pH 5.5; for Ki / kinact: HIV-1 protease 2.6 nM; for Ki: inhibition constant; for kinact: rate constant of covalent bond formation, read-out: kina (converted); for kinact/KI: second order rate constant, HIV-1 protease, read-out: kina /KI (converted). An outline of the steps:
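HIV-1 protease (2.6 nM) incubated with inhibitor in 50 mM sodium acetate pH 5.5, 1 mM DTT, 1 mM EDTA, 0.75 M ammonium sulfate, 0.2 M NaCl, 0.1% NP40. Residual activity was sampled over time using 100 μM p-NO2-Phe undecapeptide substrate (KM 20 μM), HPLC, 280 nm. kobs came from ln(activity)-versus-time slope, and KI and kina from kinetic fitting.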

Data set [1] is described as follows: Cytotoxicity in H9 or Sup T1 cells (trypan blue dye exclusion). As to conditions: human. Format: cell-based.
The mark [2] stands for this setting: Human immunodeficiency virus 1, SUP-T1.
Where [3] appears, read: concentration that causes death of cells by 50%, H9 or Sup T1 cells, 37° C, read-out: CT50 (the source's name).

With `CC(C)[C@H](NC(=O)OCc1ccccc1)C(=O)N[C@@H](Cc1ccccc1)[C@@H](O)[C@H](O)[C@H](Cc1ccccc1)NC(=O)[C@@H](NC(=O)OCc1ccccc1)C(C)C` [A-75925, reference compound], the IC50 on HIV-1 (inhibits proliferation of HIV by 50%, Sup T1 syncytium or H9 reverse transcriptase assay, 37° C, read-out: IC50) was found to be 0.25 µM. Moreover, the CC50 in the data set on H9 cell or Sup T1 cell is > 100 µM.

For the compound `CC(C)[C@H](NC(=O)OCc1ccccc1)C(=O)N[C@@H](Cc1ccccc1)[C@H]1O[C@H]1CNC(=O)OC(C)(C)C` [compound 82, 4S-[N^1-(t-butoxycarbonyl)amino]-[N^4-[(N-benzyloxycarbonyl-L-valinyl)amino]]-5-phenyl-(2S,3R)-(Z)-epoxypentane], on HIV-1 protease, the affinity corresponds to a Ki of 0.45 µM, the kinact is 0.0183 s⁻¹ and the kinact/KI was 40000 M⁻¹ s⁻¹. The IC50 with HIV-1 (setting [2]) was determined as 0.75 µM. For the same compound, the CC50 in data set [1] (setting [3]) is > 10 µM.

In the case of `CC(C)(C)OC(=O)NC[C@@H]1O[C@@H]1[C@H](Cc1ccccc1)NC(=O)[C@H](CC(N)=O)NC(=O)c1ccc2ccccc2n1` [compound 83], at HIV-1 protease, the affinity, expressed as Ki, was 0.4 µM; the kinact is 0.02 s⁻¹; the kinact/KI was 50000 M⁻¹ s⁻¹. In addition, the IC50 with HIV-1 (setting [2]) was 0.75 µM. Moreover, the CC50 in data set [1] (setting [3]) was > 10 µM.

In the case of `NC(=O)C[C@H](NC(=O)c1ccc2ccccc2n1)C(=O)NC[C@@H]1O[C@@H]1[C@H](Cc1ccccc1)NC(=O)[C@H](CC(N)=O)NC(=O)c1ccc2ccccc2n1` [compound 84], on HIV-1 protease, the Ki was found to be 0.5 µM, the kinact was 0.00333 s⁻¹ and the kinact/KI is 6670 M⁻¹ s⁻¹. The compound further displayed an IC50 in the data set on HIV-1 (setting [2]) of 1 µM. Moreover, in data set [1] (setting [3]), the CC50 is > 100 µM.

With `NC(=O)C[C@H](NC(=O)OCc1ccccc1)C(=O)NC[C@@H]1O[C@@H]1[C@H](CC1CCCCC1)NC(=O)[C@H](CC(N)=O)NC(=O)OCc1ccccc1` [compound 85], the Ki at HIV-1 protease is > 10 µM. The midpoint of inhibition with HIV-1 (setting [2]), the IC50, lay at 5 µM. Besides, in data set [1] (h9 or sup t1 cells), the CC50 was > 100 µM.

Turning to `CC(C)[C@H](NC(=O)OCc1ccccc1)C(=O)NC[C@@H]1O[C@@H]1[C@H](CC1CCCCC1)NC(=O)[C@@H](NC(=O)OCc1ccccc1)C(C)C` [compound 86, 4S-1,4-bis[N-(N'-benzyloxycarbonyl-L-valinyl)amino]-5-cyclohexyl-(2S,3R)-(Z)-epoxypentane], on HIV-1 protease, the Ki was determined as 0.05 µM, the kinact was 0.00333 s⁻¹ and the kinact/KI was 66700 M⁻¹ s⁻¹. In addition, the IC50 in the data set on HIV-1 (setting [2]) was found to be 0.5 µM. In data set [1] (setting [3]), the CC50 is > 100 µM.
